Patent US20240390400A1, “ENPP1 INHIBITORS AS INHIBITORS OF METASTASIS” (Angarus Therapeutics, Inc., priority 2021, published 2024)
Several values for one entry are separate records, joined by “and”; a condition that tells them apart may be missing. Equal entries are not always repeated.

What was measured:
EMT6 tumor cells = assay: EMT-6 tumor model (tumor volume and lung metastasis); assay type: in vivo, female Balb/c mice
Procedure: Test animals were female Balb/c mice aged 5-8 weeks at inoculation.
The EMT6 tumor cells were maintained in vitro with DMEM medium supplemented with 10% fetal bovine serum at 37° C. in an atmosphere of 5% CO2 in air. The cells in exponential growth phase were harvested and quantitated by cell counter before tumor inoculation.
Each mouse was inoculated subcutaneously in the right flank region with EMT6 tumor cells (5×10^5) in 0.1 ml of PBS for tumor development.
Staggered inoculation was performed. G1, 2, 3, 6, 7 were inoculated one day before G4, 5, 8, 9, 10.
The randomization started when the mean tumor size reached approximately 80 (60-110) mm^3. 100 mice were enrolled in the study. All animals were randomly allocated to 10 study groups. Randomization was performed based on “Matched distribution” method (StudyDirector™ software, version 3.1.399.19).
Staggered randomization was performed. G1, 2, 3, 6, 7 were randomized one day before G4, 5, 8, 9, 10.
The date of tumor randomization was denoted as day 0.
After tumor cells inoculation, the animals were checked daily for morbidity and mortality. During routine monitoring, the animals were checked for any effects of tumor growth and treatments on behavior such as mobility, food and water consumption, body weight gain/loss (body weights were measured twice per week after randomization), eye/hair matting and any other abnormalities. Mortality and observed clinical signs were recorded for individual animals in detail.
Tumor volumes were measured twice per week in two dimensions using a caliper, and the volume was expressed in mm^3 using the formula: “V=(L×W×W)/2, where V is tumor volume, L is tumor length (the longest tumor dimension) and W is tumor width (the longest tumor dimension perpendicular to L). (Tumor weight was measured at the end of study). Dosing as well as tumor and body weight measurements were conducted in a Laminar Flow Cabinet.
The study was terminated at 4 weeks post randomization. Individual animals were euthanized when TV>3000 mm^3.
For comparison between two groups, a Student's t-test was performed. For comparison among three or more groups, an one-way ANOVA was performed followed by multiple comparison procedures. All data were analyzed using SPSS 18.0 and/or GraphPad Prism 5.0. P<0.05 is considered statistically significant.
Animals were treated with vehicle, cpd 76, radiotherapy, or anti-PD-L1, or a combination of treatments. Compound 76 was dosed 50 mg/kg and formulated 5 mg/ml in PBS. Radiotherapy used the X-RAD 225Cx SmART Small Animal Radiation Therapy System (Crownbio). Ten animals were in each group and dosing was performed as in Table 4.

[1] = Animal weight in 4T1 tumor model study; assay type: in vivo, Mus musculus, BALB/c; conditions: throughout the study; Groups 3 and 4 until Day 21, Groups 1 and 2 until Day 25
Procedure: All treatment groups were compared to the vehicle control given subcutaneously once a day on Days 7, 8, 9, 14, 15 and 16 (Group 1).
At necropsies, animals were weighed, and a final in vivo tumor volume measurement was performed.

mean animal weights [1] | Structure (SMILES) | effect on tumor growth (EMT6 tumor cells; Compound 76 50 mg/kg QD 1-7 combined with IR and aPD-L1 (triple combo)) | lung metastasis (animals with metastasis / animals) (EMT6 tumor cells; Compound 76 QD 1-7 d combined with aPD-L1 (Groups 9 and 10), study termination day 29) | effect on tumor volume / tumor growth (EMT6 tumor cells; single agent, Compound 76 50 mg/kg QD 1-7 only or 3 d on/4 d off for 4 weeks, aPD-L1 2.5 mg/kg) | lung metastasis (animals with metastasis / animals in group) (EMT6 tumor cells; single agent, study termination day 29)
 | COc1cccc2c(N3CCC(CCP(=O)(O)O)CC3)ncnc12 [Compound 76] | synergistic effect | 0/20 | no effect on tumor volume | 7/10 and 8/10
continuously decreased | COc1cccc2c1C(=O)c1c(O)c3c(c(O)c1C2=O)C[C@@](O)(C(=O)CO)C[C@@H]3O[C@H]1C[C@H](N)[C@H](O)[C@H](C)O1 [doxorubicin, Doxorubicin] |  |  |  | 
